{"source": "patent US6375990B1", "about": "“Method and devices for transdermal delivery of lithium” (Emory University, priority 1997, dated 2002)", "origin": "cited, not measured here", "key": {"[1]": {"details": "patients who do not respond to antidepressant monotherapy"}, "[2]": {"assay": "not given", "remark": "listed apart in the source"}}}
{"smiles": "[Li+]", "note": "[Li^+, Lithium]", "values": [{"measurement": "final volume of distribution (Vd)", "setting": "approximates total body water", "value": "0.7 to 0.9", "unit": "L/kg"}, {"measurement": "time to maximal plasma Li+ concentration (Tmax)", "setting": "immediate release formulations, following an oral dose", "value": "1 to 4", "unit": "h"}, {"measurement": "binding to blood proteins", "setting": "in vivo", "value": "does not bind to blood proteins"}, {"measurement": "biotransformation / metabolic conversion", "setting": "in vivo", "value": "not biotransformed"}, {"measurement": "elimination through sweat, saliva, and feces", "setting": "in vivo", "value": "less than 5 % of an oral dose"}, {"measurement": "excretion through the kidneys", "setting": "in vivo", "value": "> 90", "unit": "%"}, {"measurement": "filtered load reabsorbed in the renal proximal tubules", "setting": "in vivo", "value": "Eighty"}, {"measurement": "half-life", "setting": "in vivo", "value": "18 to 36", "unit": "h"}, {"measurement": "absorption from the gastrointestinal tract", "setting": "oral administration", "value": "readily and nearly completely absorbed"}, {"measurement": "antidepressant non-responders converted to responders", "setting": "[1]", "value": "approximately 50 % of patients"}, {"measurement": "plasma concentration associated with life-threatening intoxication", "setting": "[2]; plasma", "value": "exceeding 3.5 mEq/L"}, {"measurement": "serum concentration above which adverse effects increase greatly", "setting": "[2]; serum", "value": "exceed 1.5 mEq/L"}]}
